# Where a chain is given by its changes, count along the chain named.
# Assays:
# [1] = target: T1, E2C hDAT (C90A/C306A hDAT) (Homo sapiens, UniProt Q01959, C306A/C90A); experiment: MTSET assay, [3H]DA uptake in HEK293 cells; format: cell-based
# T1 construct: expressed in transfected cells; host or cells: HEK293 cells, transient, pcDNA3.1+
# T1 sequence (Q01959 1-620 C90A/C306A): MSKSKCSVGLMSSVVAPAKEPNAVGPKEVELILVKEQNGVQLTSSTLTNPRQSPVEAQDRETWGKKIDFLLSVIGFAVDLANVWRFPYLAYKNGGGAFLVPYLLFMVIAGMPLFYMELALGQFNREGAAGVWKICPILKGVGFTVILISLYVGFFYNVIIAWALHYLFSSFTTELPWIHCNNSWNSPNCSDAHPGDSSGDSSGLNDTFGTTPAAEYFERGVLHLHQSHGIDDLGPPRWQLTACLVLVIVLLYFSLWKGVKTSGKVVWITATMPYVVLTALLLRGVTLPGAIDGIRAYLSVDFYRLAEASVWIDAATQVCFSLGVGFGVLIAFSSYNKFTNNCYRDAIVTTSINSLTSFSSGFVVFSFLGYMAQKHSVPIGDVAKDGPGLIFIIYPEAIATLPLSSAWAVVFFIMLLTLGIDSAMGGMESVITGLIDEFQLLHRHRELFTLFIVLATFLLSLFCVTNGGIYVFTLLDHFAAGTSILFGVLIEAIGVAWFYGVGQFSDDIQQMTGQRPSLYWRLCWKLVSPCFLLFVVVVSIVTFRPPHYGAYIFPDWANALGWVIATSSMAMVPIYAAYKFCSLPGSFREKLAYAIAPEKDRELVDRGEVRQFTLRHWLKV
# From the text: All mutants on hDAT were generated based on the predictions made using our computational model, as described previously using site-directed mutagenesis based on the wild-type hDAT (WT hDAT) sequence (NCBI, cDNA clone MGC: 164,608 IMAGE: 40,146,999) (Quizon et al. [2016]). The combination of hDAT mutations on Asp206 and His547 (Aspartic acid 206 to leucine and histidine 547 to alanine, D206L/H547A) were predicted to eliminate two hydrogen bonds between Tat and hDAT. In addition, the combination of mutations on Tyr88, Asp206, and His547 (tyrosine88 to phenylalanine and aspartic acid 206 to leucine and histidine 547 to alanine, Y88F/D206L/H547A) were predicted to eliminate three hydrogen bonds from the Tat-hDAT complex. Two extracellular cysteine90 and cysteine306 residues on WT hDAT were mutated to alanine as E2C hDAT (C90A/C306A hDAT), rendering the E2C hDAT MTSET-insensitive background (Pedersen et al. [2014]). A triple mutation of the two cysteine90 and 306 residues to alanine and […] to cysteine on WT hDAT was generated as E2C-I159C hDAT (C90A/C306A/I159C) for MTSET-sensitive construct. A combination of C90A/C306A/H547A was generated as E2C/H547A hDAT for MTSET-insensitive control for H547A. To determine whether H547A-enhanced DA transport is mediated by changing transporter conformation, two combinations of C90A/C306A/I159C/H547A and C90A/C306A/I159A/H547A were generated as E2C-I159C/H547A and E2C-I159A/H547A for positive and negative controls for MTSET sensitive background, respectively. Synthetic cDNA encoding hDAT subcloned into pcDNA3.1+ (provided by Dr. Haley E Melikian, University of Massachusetts) was used as a template to generate mutants using site-directed mutagenesis performed by GENEWIZ (South Plainfield, NJ). DNA sequencing was also performed by GENEWIZ to confirm the sequences of the mutant constructs. Plasmid DNA were propagated and purified using the Qiagen Hi-speed maxi prep plasmid DNA isolation kit (Qiagen, Valencia, CA, USA).
# This assay was performed based on the previous report with minor modifications (Loland et al. [2004], [2008]). First, we generated five WT hDAT based plasmid construct for MTSET-insensitive or sensitive background as we described above. HEK293 cells were grown in poly-d-lysine coated plates at a density of 1 × 10^5 cells/cm^2 were transfected with different E2C- associated hDAT background constructs: E2C hDAT, E2C-I159C hDAT, E2C/H547A hDAT, E2C-I159C/H547A or E2C-I159A/H547A. Twenty-four hours after the transfection, cells were washed twice with 1× KRH buffer, and preincubated with or without the presence of 10 µM nomifensine (for non-specific uptake) and MTSET for 10 min at room temperature. MTSET at 1 mM final concentration was chosen based on a pilot study on optimizing MTSET concentrations (0.1, 0.5 or 1.0 mM). […] Because MTSET is easily hydrolyzed in solution, the amount needed for a 10 × stock was weighed out and dissolved in 1 × KRH buffer just right before adding to the assigned wells, for a 10-fold dilution (final concentration of 1 mM in final volume of 250 µl). […] Cells were immediately washed twice with ice-cold 1 × KRH buffer to terminate the reaction and were lysed rapidly with the addition of 1 % SDS. Cell lysates were collected after incubation for 1 h at room temperature and radioactivity was determined the next day.
# [2] = target: T2, E2C-I159C hDAT (C90A/C306A/I159C) (Homo sapiens, UniProt Q01959, C306A/C90A/I159C); design: method as in Loland et al. [2004], [2008]; settings: 0.5 mM MTSET for 10 min; ref Loland et al. [2004], [2008]; cited from earlier work
# T2 construct: expressed in transfected cells; host or cells: HEK293 cells, transient, pcDNA3.1+
# T2 sequence (Q01959 1-620 C90A/I159C/C306A): T1 sequence (Q01959 1-620 C90A/C306A) with I159C
# [3] = E2C, 1 mM MTSET, HEK293, Fig. 8b
smiles,measurement,setting,value
"C[N+](C)(C)CCSS(C)(=O)=O [MTSET, [2-(trimethylammonium)ethyl]-methanethiosulfonate]",[3H]DA uptake in the presence of MTSET,[1]; [3],86.5 ± 6.0
same,effect of MTSET on DA uptake,[1]; [3],no effect
same,effect on [3H]DA uptake,"[1]; E2C-hDAT, MTSET 0.1, 0.5, 1.0 mM, pilot study Fig. 8a",no effect
same,inhibition on E2C-I159C,[2],40%
